Literature values in patent US20200281206A1, “SEXUAL ATTRACTION PHEROMONE OF TRIBOLIUM CASTANEUM AND INSECT CONTROL DEVICE” (YPF TECNOLOGÍA S.A., priority 2019, published 2020).

System: Tribolium castaneum
Conditions: prior-art finding

CCC(C)CCCC(C)CCC=O (stereo not shown) [4,8-dimethyldecanal]
sex of insects attracted: attracts both male and female insects
